Columns and labels:
[1] = system: isolated segment of guinea pig colon; settings: Wade et al. 1996; slower as dose increased; cited from earlier work
intestinal transit = assay: Intestinal transit in multi-fistulated dogs, cumulative % recovery of 99mTc-DTPA; type: in vivo, dog; settings: n=2
Excerpt: The experiments described below are based on a previously described chronic multi-fistulated dog model, employing surgically fistulated male or female mongrel dogs weighing about 25 kg each. (Lin, H. C. et al., Inhibition of gastric emptying by glucose depends on length of intestine exposed to nutrient, Am. J. Physiol. 256:G404-G411 [1989]). The small intestines of the dogs were each about 300 cm long from the pylorus to the ileal-cecal valve. The duodenal fistula was situated 15 cm from the pylorus; the mid-gut fistula was situated 160 cm from the pylorus. Occluding Foley catheters (balloon catheters that are inflated to produce a water-tight seal with the lumenal surface) were placed into the distal limb of a duodenal fistula and a mid-gut fistula, fat or other test agents were administered lumenally to the thus compartmentalized Aproximal≅ section of the gut, i.e., between the fistulas, or to the compartmentalized Adistal≅ section of the gut, i.e., beyond the mid-gut fistula. Perfusate was pumped into a test section through the catheter at a rate of 2 mL/minute. Test agents were administered along with buffer perfusate, but some test agents were administered intravenously, where specifically noted.
Intestinal transit measurements were made by tracking the movement of a liquid marker across the approximately 150 cm intestinal test segment by delivering about 20 μCi ^99mTc chelated to diethyltriamine pentaacetic acid (DTPA)(Cunningham, K. M. et al., Use of technicium-99m (V)thiocyanate to measure gastric emptying of fat, J. Nucl. Med. 32:878-881 [1991]) as a bolus into the test segment after 60 minutes of a 90-minute perfusion. The output from the mid-gut fistula was collected every 5 min thereafter for 30 minutes, which period is illustrated in FIGS. 9-23. Using a matched dose of ^99mTc to represent the original radioactivity (Johansson, C., Studies of gastrointestinal interactions, Scand. J. Gastroenterol. 9(Suppl 28):1-60 [1974]; Zierler, K., A simplified explanation of the theory of indicator dilution for measurement of fluid flow and volume and other distributive phenomena, Bull. John Hopkins 103:199-217 [1958]), the radioactivity delivered into the animal as well as the radioactivity of the recovered fistula output were all measured using a gamma well counter. After correcting all counts to time zero, intestinal transit was calculated as the cumulative percent recovery of the delivered ^99mTc-DTPA. This method has been well validated over the years and appreciated for its advantage of minimal inadvertent marker loss. […] There was a very high level of marker recovery, with 90% of the marker recovered by 30 minutes and 98% of the marker recovered by 45 minutes.

isolated canine ileum = settings: infused into isolated canine ileum; Fox-Threlkeld et al. 1993; cited from earlier work
[2] = system: release of 5-HT from the proximal gut; assay: 5-HT released by the proximal gut (ELISA of mid-gut fistula output); type: in vivo, dog; settings: intravenous PYY (0.8 mg/kg/h); Control 140.1 μg
Experimental: To test the hypothesis that fat in the distal gut causes the release of 5-HT in the proximal gut, the amount of 5-HT collected from the output of the mid-gut fistula (proximal gut 5-HT) over a 90-minute period of buffer perfusion through both the duodenal and mid-gut fistulas (2 mL/min); buffer (control) or oleate (60 mM) was administered to the distal gut (n=1). The amount of 5-HT was determined using an ELISA kit specific for 5-HT (Sigma; Graham-Smith, D. G., The carcinoid syndrome, In: Topics in Gastroenterology, Truclove, S. C. and Lee, E. (eds.), Blackwells, London, p. 275 [1977]; Singh, S. M. et al., Concentrations of serotonin in plasma-a test for appendicitis?, Clin. Chem. 34:2572-2574 [1988]). The amount of 5-HT released by the proximal gut increased in response to fat in the distal gut from 100 μg in the control (buffer minus oleate) to 338 μg (buffer plus oleate to distal gut), showing that 5-HT is released in the proximal gut in response to fat in the distal gut. Thus, the release of 5-HT by the proximal gut can serve as a relayed signal for fat in the distal gut. The relayed release of 5-HT in the proximal gut in response to fat in the distal gut is consistent with Example 14(2), showing that slowing of intestinal transit by fat depends on an efferent 5-HT-mediated pathway to the proximal gut.
To test the hypothesis that 5-HT in the distal gut causes the release of 5-HT in the proximal gut, the amount of 5-HT collected from the output at the mid-gut fistula (Proximal gut 5-HT) over a 90-minute period of buffer perfusion through both the duodenal and mid-gut fistulas (2 mL/min each) was compared in the presence or absence of 5-HT (0.05 mg/kg/h) administered to the distal gut (n=1). 5-HT concentration was determined using an ELISA kit specific for 5-HT (Sigma). The amount of 5-HT released by the proximal gut increased from 156 μg in the control (minus distal 5-HT) to 450 μg (plus 5-HT to distal gut), implying that 5-HT is released by the proximal gut in response to 5-HT in the distal gut. Thus, the release of 5-HT by the proximal gut can serve as a relayed signal for distal gut 5-HT. This relayed release of 5-HT in the proximal gut explains the results of Example 14(6) showing that the slowing of intestinal transit by distal gut 5-HT was abolished by ondansetron in the proximal gut (efferent limb of response) as well as in the distal gut (afferent limb of response).
To test the hypothesis that the proximal gut releases 5-HT in response to lipid in the distal gut, we compared the amount of 5-HT in the output of the midgut fistula (i.e., proximal gut 5-HT) with buffered saline (control) or oleate in the distal gut. The amount of 5-HT collected over 90 min was measured using a 5-HT-specific ELISA test kit, as described herein above. Four dogs were tested.
The amount of 5-HT released from the proximal gut in response to intravenous PYY or buffered saline (Control) during buffer perfusion (2 mL/min over 90 minutes) through both the duodenal and mid-gut fistulas was measured to test the hypothesis that intravenous PYY (0.8 mg/kg/h) causes the release of 5-HT in the proximal gut. 5-HT was measured as in Example 14(9) above. The amount of 5-HT released by the proximal gut increased from 140.1 μg (Control) to 463.1 μg in response to intravenous PYY.

Molecule	passage of a pellet through an isolated segment of guinea pig colon [1]	marker recovery (intestinal transit; 30 μg PYY (0.8 mg/kg/h) intravenously, Buffer Control 78.1±2.2%) [%]	marker recovery (intestinal transit; IV PYY 0.8 μg/kg/h + lumenal normal saline, control 75.1±3.6%) [%]	phasic circular muscle activity (isolated canine ileum)	amount of 5-HT released by the proximal gut [2] [µg]
CNCCC(Oc1ccc(C(F)(F)F)cc1)c1ccccc1 (centres unmarked) [fluoxetine]	initially accelerated				
PYY: Peptide YY, a physiological fat signal molecule that slows transit		11.8±5.4	17.1±11.0	dose-dependently increased	463.1

Reference: patent US9358276B2, “Methods of diagnosing and treating small intestinal bacterial overgrowth (SIBO) and SIBO-related conditions” (Cedars-Sinai Medical Center, priority 1999, dated 2016)
